Data taken from patent US20110312961A1, “2,5-Disubstituted Morpholine Orexin REceptor Antagonists” (priority 2008, published 2011).

What was measured:
[1] = molecular target: T1, human recombinant α4β4 nicotinic receptors (Homo sapiens, UniProt P30926+P43681); assay: [3H]epibatidine binding, SH-EP1 membranes
T1 construct: expressed in transfected cells; host or cells: SH-EP1

CD-1 mice = assay: Formalin test; assay type: in vivo, mouse
Protocol: One of the most clinically predictive screening models of acute pain is the formalin test in mice (LeBars et al., 2001). In this paradigm, originally described by Dubuisson and Dennis (1977), a diluted solution of formalin is injected into the plantar surface of a subject's (rat or mouse) rear paw and nociceptive behavior is measured; for instance, licking and biting of the injected paw. Two phases of the response are observed. First an early phase, starting immediately after injection and lasting 5-10 minutes, followed by a late phase that can last from 15-60 minutes after injection. Nociceptive response is attributed to direct chemical stimulation in the early phase and inflammation/persistent pain in the later phase (Dubuisson and Dennis, 1977). The response in the late phase also depends on changes in processing of information in the spinal cord due to the afferent barrage during the early phase (Coderre et al., 1990). An advantage of the test is that two different types of stimuli are employed in the same assay to study the possibility of varying analgesic effects of a drug in the two phases of the test (Tjølsen and Hole, 1997).
Subjects (adult male CD-1 mice (Charles River, Raleigh, N.C.) weighing approximately 20-25 grams) were removed from their home cage and weighed, then placed in a clear Plexiglas™ observation box for an acclimation period of 20-30 minutes. Mice were then removed from the observation chambers and (2S,3R)—N-2-((3-pyridinyl)methyl)-1-azabicyclo[2.2.2]oct-3-yl)-3,5-difluorobenzamide (as the hydrochloride salt in 0.9% saline) (1, 3 or 10 mg/kg s.c. (calculated with respect to the free base)), morphine (5 mg/kg; s.c.) or 0.9% saline vehicle was administered subcutaneously in a volume of 1 mL/kg. Mice were then returned to the chamber for the predetermined pretreatment time of 30 minutes for (2S,3R)—N-2-((3-pyridinyl)methyl)-1-azabicyclo[2.2.2]oct-3-yl)-3,5-difluorobenzamide and morphine.
After the test compound pretreatment time, the animals were injected with formalin solution (2.5% derived as a 1:4 dilution of 10% phosphate buffered formalin solution (Sigma):distilled water). The subject's assigned paw was gasped gently and formalin solution was injected into the paw intra-dermally in the middle on the dorsal side. Once injected, the subject was immediately returned to its observation chamber and a timer was started to mark the beginning of Phase I. Each subject was videotaped for the entire 40-minute session. […] The time spent licking during that 1 min interval was recorded, and the presence or absence of paw favoring was noted.
For data analyses, phase I of the test was defined as 0 to 5 minutes after formalin injection, and phase II was defined as 20 to 40 minutes after formalin injection. The time spent licking during the 1 minute intervals during those time frames was recorded and graphed as mean±S.E.M. For comparisons across treatment groups, 1-way analyses of variance (ANOVAs) were performed for each phase of the session with treatment as the […] variable. Post-hoc analyses were performed when appropriate to determine specific group differences.

[2] = system: STZ rat model of diabetic neuropathy; assay: Streptozotocin (STZ)-induced diabetic neuropathy, Von Frey allodynia; assay type: in vivo; details: for allodynia (Von Frey): 30 minutes after administration
From the text: Peripheral neuropathy, a major complication of diabetes, often results in spontaneous pain or the perception of pain from contact with a normally non-noxious stimulus. Such neuropathic pain is experienced by 20-24% of diabetic patients, or approximately 30 million people worldwide (Schmader, 2002). The streptozotocin (STZ)-induced diabetes model in rats provides a means to evaluate the efficacy of test compounds that offer therapeutic potential for peripheral neuropathy and to understand their putative mechanism of action. In this model, a single injection of STZ, an antibiotic that mimics clinical diabetes by causing irreversible damage to the pancreatic β and α-cells leads to chronic hyperglycemia, nerve dysfunction and pain sensitivity. The current study utilizes the STZ rat model of diabetic neuropathy to investigate the effects of (2S,3R)—N-2-((3-pyridinyl)methyl)-1-azabicyclo[2.2.2]oct-3-yl)-3,5-difluorobenzamide on mechanical allodynia, an assessment of pain.
Diabetes was induced by a 0.5 ml injection of streptozotocin (60 mg/kg) dissolved in citrate buffer (pH) into the tail vein of each rat The development of diabetes was confirmed by measuring the blood glucose levels (BGL) of all animals on study day 3 (BGL>300 mg/dL). […] These animals were tested again for their BGL at study day 23.
(2S,3R)—N-2-((3-pyridinyl)methyl)-1-azabicyclo[2.2.2]oct-3-yl)-3,5-difluorobenzamide (0.1, 1 or 10 mg/kg p.o.) was administered as a solution of the hydrochloride salt in water once daily starting on study day 14 or study day 16 and continuing through study day 21 or 23, respectively. The control article gabapentin (in 0.9% saline, 150 mg/kg i.p.) was only administered on allodynia test days. Test item, vehicle or control article administration was based on evaluation of allodynia on study day 14. If allodynia was not present on study day 14, the animal was evaluated again at study day 16. Pain response was measured either on study days 14 and 21 or 16 and 23, 30 minutes after Test Item administration.
For the allodynia assessments, Von Frey filaments were used according to the methods of Chaplan and colleagues (1994). Briefly, the rats were placed in an enclosure and positioned on a metal mesh surface, but allowed to move freely. The rats' cabins were covered with red cellophane to diminish environmental distributions. The test began after cessation of exploratory behavior.
When the tip of a Von Frey fiber of given length and diameter was pressed against the skin at right angles, the force of application increases as long as the researcher continued to advance the probe until the fiber bent. After the fiber bent, the probe was advanced, causing the fiber to bend more, but without additional force being applied. The animal would indicate sensation by pulling back its paw. In the absence of a paw withdrawal response to the initially selected filament, a stronger stimulus was presented; in the event of paw withdrawal, the next weaker stimulus was chosen. In this fashion, the resulting pattern of positive and negative responses was used to determine the paw withdrawal threshold.
The set of Von Frey monofilaments provide an approximate logarithmic scale of actual force and a linear scale of perceived intensity. Below is a table showing the force (g) and its corresponding size of monofilaments.
All normally distributed data are presented as means±SEM, as well as the animals' individual values followed by a student T-test (Software: Microsoft® Excel). A p value <0.05 is considered to represent a significant difference. Due to the non-normal distribution of the allodynia data, descriptions of those data are provided as both mean (±SEM) and median values in order to represent their imprecise nature and skewed distribution.

T1 sequence (P43681 29-627 limits assumed): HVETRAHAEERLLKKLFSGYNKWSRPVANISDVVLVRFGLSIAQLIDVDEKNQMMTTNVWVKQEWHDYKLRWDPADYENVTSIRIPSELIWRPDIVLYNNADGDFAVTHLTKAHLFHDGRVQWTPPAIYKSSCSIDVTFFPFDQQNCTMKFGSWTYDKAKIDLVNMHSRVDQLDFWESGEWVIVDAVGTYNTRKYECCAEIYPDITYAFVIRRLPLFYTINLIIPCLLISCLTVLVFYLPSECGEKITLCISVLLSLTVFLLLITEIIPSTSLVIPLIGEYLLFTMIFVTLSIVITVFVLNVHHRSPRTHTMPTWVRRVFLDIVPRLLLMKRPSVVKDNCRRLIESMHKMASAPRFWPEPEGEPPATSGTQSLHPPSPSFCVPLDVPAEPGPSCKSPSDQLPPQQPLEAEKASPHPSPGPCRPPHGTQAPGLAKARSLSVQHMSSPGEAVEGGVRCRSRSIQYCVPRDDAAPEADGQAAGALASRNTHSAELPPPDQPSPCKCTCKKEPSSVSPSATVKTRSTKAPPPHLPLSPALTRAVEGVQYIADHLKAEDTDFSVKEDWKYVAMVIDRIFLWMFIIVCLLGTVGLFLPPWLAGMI
T1 sequence (P30926 22-498): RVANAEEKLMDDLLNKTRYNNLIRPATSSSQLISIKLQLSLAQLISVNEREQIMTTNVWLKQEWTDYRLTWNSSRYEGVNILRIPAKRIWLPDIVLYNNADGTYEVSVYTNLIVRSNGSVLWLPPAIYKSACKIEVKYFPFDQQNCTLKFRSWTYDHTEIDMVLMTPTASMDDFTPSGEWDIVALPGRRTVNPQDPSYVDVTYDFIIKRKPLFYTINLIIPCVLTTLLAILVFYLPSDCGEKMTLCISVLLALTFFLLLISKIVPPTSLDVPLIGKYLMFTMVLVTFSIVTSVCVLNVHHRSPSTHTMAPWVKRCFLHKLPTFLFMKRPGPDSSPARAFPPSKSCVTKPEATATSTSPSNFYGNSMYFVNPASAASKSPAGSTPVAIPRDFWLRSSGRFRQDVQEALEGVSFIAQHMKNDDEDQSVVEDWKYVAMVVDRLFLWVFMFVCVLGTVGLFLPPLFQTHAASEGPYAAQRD

O=C(N[C@@H]1C2CCN(CC2)[C@H]1Cc1cccnc1)c1cc(F)cc(F)c1 [Compound A]
Ki [1]: 19 µM
reduction of time spent licking the paw, phase II (CD-1 mice; 10 mg/kg s.c., 20 to 40 minutes after formalin, P<0.05): significant in reducing the time spent licking the paw
reduction of time spent licking, phase I (CD-1 mice; 1, 3 or 10 mg/kg s.c., hydrochloride salt, 0 to 5 minutes after formalin): no statistically significant dose
reduction of time spent licking the affected paw, phase I or phase II (CD-1 mice; subsequent analysis of the videotapes, scored across the entire time period): failed to achieve statistical significance
allodynia (Von Frey) ([2]; 1 mg/kg p.o., study days 14/16, p<0.01 vs pretreatment, p<0.05 vs Vehicle): inhibited allodynia
allodynia (Von Frey) ([2]; 1 mg/kg p.o., study days 21/23, p=0.012 vs pretreatment): inhibited allodynia
allodynia (Von Frey) ([2]; 10 mg/kg p.o., study days 14/16, p=0.012 vs pretreatment): inhibited allodynia
allodynia (Von Frey) ([2]; 10 mg/kg p.o., study days 21/23, p<0.05 vs Vehicle): inhibited allodynia
diabetic neuropathy pain, Von Frey assessment ([2]; doses of 1 mg/kg and 10 mg/kg compared to Vehicle, FIG. 14): effective in reducing diabetic neuropathy pain
